The values that follow come from US20090281137A1, “INDOL-2-ONE DERIVATIVES FOR THE TREATMENT OF CENTRAL NERVOUS DISORDERS, GASTROINTESTINAL DISORDERS AND CARDIOVASCULAR DISORDERS” (priority 2004, published 2009).

Where a name gives a salt, the structure may show the parent alone.

The first data set deals with Male Sprague-Dawley rats. The experiment in a line: Elevated plus-maze in rats. The class given is in vivo. The settings on record: p.o., 60 min after treatment, 5 min test, increase in time spent in or number of entries into the open arms. From the text:
The anxiolytic effect of the compounds according to the invention was investigated on rats according to the so-called elevated plus-maze test (S. Pelow, P. Chopin, S. E. File, J. Briley: Neurosci. Methods 14, p. 149 (1985)).
A wooden cross elevated to 50 cm above the floor, 15 cm wide with 100 cm long arms was used for the experiments. The sides and ends of two opposite arms of the cross were equipped with 40 cm high walls, however, the arms were open to the 15 cm×15 cm central area (closed arms). The two other opposite arms were not encircled by walls (open arms).
Male Sprague-Dawley rats weighing 200-220 g were used for the experiments. The animals were placed in the central area of the equipment 60 min after treatment and the following four parameters have been observed for the 5 min test time: […]
time spent in the open arms (sec), time spent in the closed arms (sec), number of entries into the open arms, number of entries into the closed arms.
The effect was expressed as percent increase in either the time spent in the open arms or number of entries into the open arms. MEDs (minimal effective doses) were determined for each compound.
On to `CCC1(CCCCCN2CCc3sccc3C2)C(=O)Nc2ccccc21` (stereo not drawn) [Example 36, 3-[5-(6,7-Dihydro-4H-thieno[3,2-c]pyridin-5-yl)-pentyl]-3-ethyl-1,3-dihydro-2H-indol-2-one monooxalate], for which the “MED (minimal effective dose)” value is given as “≦1.0 mg/kg p.o”. As for `CCC1(CCCCN2CC=C(c3ccc(F)cc3)CC2)C(=O)Nc2ccccc21` (stereo not drawn) [Example 39, 3-Ethyl-3-{4-[4-(4-fluorophenyl)-1,2,3,6-tetrahydropyridin-1-yl]-butyl}-1,3-dihydro-2H-indol-2-one monohydrochloride], the “MED (minimal effective dose)” value was 0.01 mg/kg p.o.

For the next data set, the target named is T1, 5-HT1A receptors (Rattus norvegicus, UniProt P19327).
T1 construct: from tissue; host or cells: rat frontal cortex membrane preparation
T1 sequence (P19327 1-422): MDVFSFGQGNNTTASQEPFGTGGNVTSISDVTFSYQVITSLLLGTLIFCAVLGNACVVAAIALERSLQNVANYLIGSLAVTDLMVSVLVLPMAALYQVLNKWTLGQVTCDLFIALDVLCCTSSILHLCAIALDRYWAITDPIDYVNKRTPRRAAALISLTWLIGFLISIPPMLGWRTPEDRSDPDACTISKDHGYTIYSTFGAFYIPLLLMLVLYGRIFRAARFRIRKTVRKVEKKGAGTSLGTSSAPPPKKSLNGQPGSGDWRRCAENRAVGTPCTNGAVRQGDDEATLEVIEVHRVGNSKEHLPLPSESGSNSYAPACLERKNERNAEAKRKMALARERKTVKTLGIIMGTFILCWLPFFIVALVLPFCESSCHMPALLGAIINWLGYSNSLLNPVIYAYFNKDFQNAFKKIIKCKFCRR
The experiment in a line: 5-HT1A receptor binding experiment. The settings on record: isolated frontal cortex membrane preparation of rats, tritiated 8-OH-DPAT ligand, 25° C., 30 minutes. Here is the method:
Binding of the compounds of the general Formula (I) to 5-HT1A receptors was investigated according to the method of Peroutka (S. J. Peroutka: J. Neurochem. 47, p. 529 (1986)).
Receptor bindings were determined from isolated frontal cortex membrane preparation of rats by using tritiated 8-hydroxy-N,N-dipropyl-2-amino-tetraline (8-OH-DPAT) ligand. For the determination of non-specific binding 10 μM serotonin creatinine sulfate was used. The following conditions were applied: incubation […] volume: 250 μl, incubation temperature: 25° C., incubation time: 30 minutes. The reaction was terminated by the addition of 9 ml of 50 mM ice-cold TRIS-HCl buffer (pH=7.7) and quick vacuum filtration using Whatman GFIB fibreglass filtering paper. Radioactivity of the filter boards was measured with the aid of a liquid scintillation spectrometer.
IC50 is the concentration whereby the difference between whole binding and non-specific binding in the presence of 10 μM serotonin creatinine sulfate is 50%. The compounds with an IC50 value smaller than […] were considered effective in this test.
In general, IC50 refers to the concentration that gives 50% inhibition. A higher IC50 goes with weaker potency. In turn, `CCC1(CCCCN2CCc3sccc3C2)C(=O)Nc2ccccc21` (stereo not drawn) [Example 29, 3-[4-(6,7-Dihydro-4H-thieno[3,2-c]pyridin-5-yl)-butyl]-3-ethyl-1,3-dihydro-2H-indol-2-one monohydrochloride] had an IC50 above 100 nM.

For `CCC1(CCCCCN2CCc3sccc3C2)C(=O)Nc2ccccc21` (stereo not drawn) [Example 36, 3-[5-(6,7-Dihydro-4H-thieno[3,2-c]pyridin-5-yl)-pentyl]-3-ethyl-1,3-dihydro-2H-indol-2-one monooxalate], the IC50 was above 100 nM. Consider `CCC1(CCCCN2CCc3sccc3C2)C(=O)Nc2ccc(Cl)cc21` (stereo not drawn) [Example 26, 5-Chloro-3-[4-(6,7-dihydro-4H-thieno[3,2-c]-pyridin-5-yl)-butyl]-3-ethyl-1,3-dihydro-2H-indol-2-one monohydrochloride], for which the IC50 is above 100 nM. Take `CCC1(CCCCCN2CCc3sc(Cl)cc3C2)C(=O)Nc2ccccc21` (stereo not drawn) [Example 37, 3-[5-(2-Chloro-6,7-dihydro-4H-thieno[3,2-c]-pyridin-5-yl)-pentyl]-3-ethyl-1,3-dihydro-2H-indol-2-one monohydrochloride]: the IC50 was above 100 nM.

Tested on in a further data set: not given
Test: not given
Settings: not given
By melting point is commonly meant the temperature of the solid-liquid transition. `CCC1(CCCCN2CC=C(c3ccc(F)cc3)CC2)C(=O)Nc2ccccc21` (stereo not drawn) (as salt: hydrochloride) [Example 39, 3-Ethyl-3-{4-[4-(4-fluorophenyl)-1,2,3,6-tetrahydropyridin-1-yl]-butyl}-1,3-dihydro-2H-indol-2-one monohydrochloride] returned a melting point of 108 to 111 °C. Same read-out and setting: in the case of `CCC1(CCCCN2CCc3sccc3C2)C(=O)Nc2ccccc21` (stereo not drawn) (as salt: hydrochloride) [Example 29, 3-[4-(6,7-Dihydro-4H-thieno[3,2-c]pyridin-5-yl)-butyl]-3-ethyl-1,3-dihydro-2H-indol-2-one monohydrochloride] it was 143 to 144 °C; in that of `CCC1(CCCCCN2CCc3sccc3C2)C(=O)Nc2ccccc21` (stereo not drawn) (as salt: oxalate) [Example 36, 3-[5-(6,7-Dihydro-4H-thieno[3,2-c]pyridin-5-yl)-pentyl]-3-ethyl-1,3-dihydro-2H-indol-2-one monooxalate], 193 to 195 °C. On to `CCC1(CCCCN2CC=C(c3ccc(Cl)cc3)CC2)C(=O)Nc2ccccc21` (stereo not drawn), for which the melting point was 142 to 145 °C. On the same count and under the same terms, in the case of `CCC1(CCCCCN2CCc3sc(Cl)cc3C2)C(=O)Nc2ccccc21` (stereo not drawn) (as salt: hydrochloride) [Example 37, 3-[5-(2-Chloro-6,7-dihydro-4H-thieno[3,2-c]-pyridin-5-yl)-pentyl]-3-ethyl-1,3-dihydro-2H-indol-2-one monohydrochloride] it was 96 to 98 °C; in that of `CCC1(CCCCN2CCc3sccc3C2)C(=O)Nc2c(Cl)cc(F)cc21` (stereo not drawn) [Example 33, 7-Chloro-3-[4-(6,7-dihydro-4H-thieno[3,2-c]-pyridin-5-yl)-butyl]-3-ethyl-5-fluoro-1,3-dihydro-2H-indol-2-one], 194 to 196 °C. Turning to `CC(C)CC1(CCCCN2CCc3sccc3C2)C(=O)Nc2ccccc21` (stereo not drawn) [Example 28, 3-[4-(6,7-Dihydro-4H-thieno[3,2-c]pyridin-5-yl)-butyl]-3-isobutyl-1,3-dihydro-2H-indol-2-one], the melting point lay within 114 to 116 °C. On the same count and under the same terms, in the case of `CCC1(CCCCN2CC=C(c3ccc(Cl)cc3)CC2)C(=O)Nc2ccc(F)cc21` (stereo not drawn) it was 146 to 148 °C.

The compound `CCC1(CCCN2CCc3sccc3C2)C(=O)Nc2ccccc21` (stereo not drawn) [Example 23, 3-[3-(6,7-Dihydro-4H-thieno[3,2-c]pyridin-5-yl)-propyl]-3-ethyl-1,3-dihydro-2H-indol-2-one] had a melting point of 130 to 132 °C. The same measure, in the same setting: in the case of `CCC1(CCCCN2CCc3sccc3C2)C(=O)Nc2cc(F)c(Cl)cc21` (stereo not drawn) [Example 35, 5-Chloro-3-[4-(6,7-dihydro-4H-thieno[3,2-c]-pyridin-5-yl)-butyl]-3-ethyl-6-fluoro-1,3-dihydro-2H-indol-2-one] it was 155 to 157 °C; in that of `CCC1(CCCCN2CCc3sccc3C2)C(=O)Nc2ccc(Br)cc21` (stereo not drawn) [Example 27, 5-Bromo-3-[4-(6,7-dihydro-4H-thieno[3,2-c]pyridin-5-yl)-butyl]-3-ethyl-1,3-dihydro-2H-indol-2-one], 149 to 151 °C.

With `CCC1(CCCN2CCc3sccc3C2)C(=O)Nc2ccc(Cl)cc21` (stereo not drawn) [Example 24, 5-Chloro-3-[3-(6,7-dihydro-4H-thieno[3,2-c]-pyridin-5-yl)-propyl]-3-ethyl-1,3-dihydro-2H-indol-2-one], the melting point lay in the range of 66 to 69 °C. `CCC1(CCCCN2CCc3sc(Cl)cc3C2)C(=O)Nc2ccccc21` (stereo not drawn) [Example 34, 3-[4-(2-Chloro-6,7-dihydro-4H-thieno[3,2-c]-pyridin-5-yl)-butyl]-3-ethyl-1,3-dihydro-2H-indol-2-one] had a melting point of 117 to 119 °C. In the case of `CCC1(CCCCN2CCc3sccc3C2)C(=O)Nc2ccc(C)cc21` (stereo not drawn) [Example 30, 3-[4-(6,7-Dihydro-4H-thieno[3,2-c]pyridin-5-yl)-butyl]-3-ethyl-5-methyl-1,3-dihydro-2H-indol-2-one], the melting point lay in the range of 138 to 140 °C. With `CCC1(CCCCN2CC=C(c3cccc(Cl)c3)CC2)C(=O)Nc2ccc(F)cc21` (stereo not drawn), the melting point lay within 112 to 114 °C.
